Test results taken from US8614324B2, “Filamin A binding anti-inflammatory and analgesic” (priority 2008, dated 2013).

Target: T1, mu opiate receptor (MOR) (Rattus norvegicus, UniProt P33535)
T1 construct: from tissue; host or cells: striatal membrane preparation (rat striatum)
Assay: MOR agonist activity, [35S]GTPγS binding assay using striatal membranes
Format: biochemical
Design: MOR agonist activity, [35S]GTPγS binding to Gαo: reference not given here
Description: To assess the mu opiate receptor (MOR) agonist activity of positive compounds from the FLNA screening, compounds were tested in a [^35S]GTPγS binding assay using striatal membranes.
Striatal tissue was homogenized in 10 volumes of ice cold 25 mM HEPES buffer, pH 7.4, which contained 1 mM EGTA, 100 mM sucrose, 50 μg/ml leupeptin, 0.04 mM PMSF, 2 μg/ml soybean trypsin inhibitor and 0.2% 2-mercaptoethanol. The homogenates were centrifuged at 800×g for 5 minutes and the supernatants were centrifuged at 49,000×g for 20 minutes. The resulting pellets were suspended in 10 volume of reaction buffer, which contained 25 mM HEPES, pH 7.5, 100 mM NaCl, 50 μg/ml leupeptin, 2 μg/ml soybean trypsin inhibitor, 0.04 mM PMSF and 0.02% […].
The resultant striatal membrane preparation (200 μg) was admixed and maintained (incubated) at 30° C. for 5 minutes in reaction buffer as above that additionally contained 1 mM MgCl2 and 0.5 nM [^35S]GTPγS (0.1 μCi/assay, PerkinElmer Life and Analytical Sciences) in a total volume of 250 μl and continued for 5 minutes in the absence or presence of 0.1-10 μM of an assayed compound of interest. The reaction was terminated by dilution with 750 μl of ice-cold reaction buffer that contained 20 mM MgCl2 and 1 mM EGTA and immediate centrifugation at 16,000×g for 5 minutes.
The resulting pellet was solubilized by sonicating for 10 seconds in 0.5 ml of immunoprecipitation buffer containing 0.5% digitonin, 0.2% sodium cholate and 0.5% NP-40. Normal rabbit serum (1 μl) was added to 1 ml of lysate and incubated at 25° C. for 30 minutes. Nonspecific immune complexes were removed by incubation with 25 μl of protein A/G-conjugated agarose beads at 25° C. for 30 minutes followed by centrifugation at 5,000×g at 4° C. for 5 minutes. The supernatant was divided and separately incubated at 25° C. for 30 minutes with antibodies raised against Gαo proteins (1:1,000 dilutions).
The immunocomplexes so formed were collected by incubation at 25° C. for 30 minutes with 40 μl of agarose-conjugated protein A/G beads and centrifugation at 5,000×g at 4° C. for 5 minutes. The pellet was washed and suspended in buffer containing 50 mM Tris-HCl, pH 8.0, and 1% NP-40. The radioactivity in the suspension was determined by liquid scintillation spectrometry. […] DAMGO (H-Tyr-D-Ala-Gly-N-MePhe-Gly-OH; 1 or 10 μM) was used as a positive control.

[1] = 0.1 μM compound, striatal membranes
[2] = 1 μM compound + BFNA (1 μM β-funaltrexamine)
[3] = 1 μM compound, striatal membranes

T1 sequence (P33535 whole entry): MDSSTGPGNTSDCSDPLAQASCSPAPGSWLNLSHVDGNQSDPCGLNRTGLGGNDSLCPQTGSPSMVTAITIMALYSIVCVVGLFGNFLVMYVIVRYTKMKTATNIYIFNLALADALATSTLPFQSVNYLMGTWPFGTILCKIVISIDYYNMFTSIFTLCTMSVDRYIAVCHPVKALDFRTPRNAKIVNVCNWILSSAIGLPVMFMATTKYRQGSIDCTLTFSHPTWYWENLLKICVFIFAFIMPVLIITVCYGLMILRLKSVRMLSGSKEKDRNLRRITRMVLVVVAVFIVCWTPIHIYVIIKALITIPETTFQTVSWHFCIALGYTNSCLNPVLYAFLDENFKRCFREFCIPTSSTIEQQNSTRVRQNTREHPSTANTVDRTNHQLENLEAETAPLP

Row | SMILES | MOR agonist activity, [35S]GTPγS binding to Gαo [1] | MOR agonist activity, [35S]GTPγS binding to Gαo [2] | MOR agonist activity, [35S]GTPγS binding to Gαo [3]
1 | C=CCN1CCC2(CC1)OCCN2S(=O)(=O)c1ccc(OC)cc1 [Compound C0091M] | 207.9% | 80.8% | 274.4%
2 | Cc1ccc(S(=O)(=O)N2CCOC23CCN(CC2CC2)CC3)cc1 [Compound C0134M] | 158.5% | 46.6% | 207.3%
3 | CCN1CCC2(CC1)OCCN2S(=O)(=O)c1ccc(C(C)=O)cc1 [Compound C0094M] | 172.5% | 115.3% | 263.5%
4 | CN1CCC2(CC1)NC(=O)CN2Cc1ccccc1 [Compound C0104M] | 188.2% | 143.8% | 238.9%
5 | O=C1CN(Cc2ccccc2)C2(CCN(CC3CC3)CC2)N1 [Compound C0125M] | 168.6% | 159.7% | 195.2%
6 | CN1CCC2(CC1)NCC(=O)N2Cc1ccccc1 [Compound C0105M] | 198.1% | 73.1% | 220.3%
7 | COc1ccc(S(=O)(=O)N2CCOC23CCN(C)CC3)cc1 [Compound C0088M] | 276.3% | 177.1% | 355.3%
8 | COc1ccc(S(=O)(=O)N2CCOC23CCNCC3)cc1 [Compound C0027] | 233.2% | 72.2% | 313.9%
